Experiment: excess molar enthalpy (molar enthalpy of mixing); xn = mol fraction of the nth substance listed
Conditions: 101 kPa, Liquid, Isoperibol calorimetry

CCCCCO [pentan-1-ol] + CC#N
Conditions	excess molar enthalpy [kcal/mol]
288.15 K, x1 = 0.0461	0.107
288.15 K, x1 = 0.0922	0.1965
288.15 K, x1 = 0.1379	0.2691
288.15 K, x1 = 0.1833	0.3207
288.15 K, x1 = 0.2279	0.364
288.15 K, x1 = 0.2717	0.3903
288.15 K, x1 = 0.3144	0.4302
288.15 K, x1 = 0.356	0.446
288.15 K, x1 = 0.3963	0.4555
288.15 K, x1 = 0.4494	0.4615
288.15 K, x1 = 0.4818	0.4632
288.15 K, x1 = 0.5174	0.462
288.15 K, x1 = 0.5567	0.4548
288.15 K, x1 = 0.6002	0.4412
288.15 K, x1 = 0.6486	0.4187
288.15 K, x1 = 0.7027	0.3879
288.15 K, x1 = 0.7635	0.3396
288.15 K, x1 = 0.8322	0.2734
288.15 K, x1 = 0.9103	0.162
298.15 K, x1 = 0.0464	0.121
298.15 K, x1 = 0.0927	0.2151
298.15 K, x1 = 0.1386	0.2909
298.15 K, x1 = 0.1841	0.3511
298.15 K, x1 = 0.2289	0.3958
298.15 K, x1 = 0.2728	0.4293
298.15 K, x1 = 0.3157	0.4534
298.15 K, x1 = 0.3574	0.4699
298.15 K, x1 = 0.4188	0.4794
298.15 K, x1 = 0.4833	0.4821
298.15 K, x1 = 0.5189	0.4773
298.15 K, x1 = 0.5582	0.4663
298.15 K, x1 = 0.6016	0.45
298.15 K, x1 = 0.65	0.4302
298.15 K, x1 = 0.7039	0.3977
298.15 K, x1 = 0.7645	0.3468
298.15 K, x1 = 0.833	0.2758
298.15 K, x1 = 0.9108	0.1673
313.15 K, x1 = 0.0467	0.125
313.15 K, x1 = 0.0933	0.2268
313.15 K, x1 = 0.1395	0.3064
313.15 K, x1 = 0.1852	0.3662
313.15 K, x1 = 0.2302	0.4109
313.15 K, x1 = 0.2742	0.4455
313.15 K, x1 = 0.3172	0.4708
313.15 K, x1 = 0.359	0.4897
313.15 K, x1 = 0.4229	0.5093
313.15 K, x1 = 0.4526	0.5127
313.15 K, x1 = 0.485	0.5141
313.15 K, x1 = 0.5207	0.5076
313.15 K, x1 = 0.5599	0.4957
313.15 K, x1 = 0.6033	0.4783
313.15 K, x1 = 0.6516	0.4548
313.15 K, x1 = 0.7054	0.4202
313.15 K, x1 = 0.7658	0.3728
313.15 K, x1 = 0.834	0.2966
313.15 K, x1 = 0.9114	0.185
323.15 K, x1 = 0.0469	0.127
323.15 K, x1 = 0.0937	0.233
323.15 K, x1 = 0.1401	0.3143
323.15 K, x1 = 0.1859	0.3721
323.15 K, x1 = 0.231	0.4204
323.15 K, x1 = 0.2752	0.4579
323.15 K, x1 = 0.3183	0.483
323.15 K, x1 = 0.3601	0.5098
323.15 K, x1 = 0.4006	0.5244
323.15 K, x1 = 0.4538	0.5509
323.15 K, x1 = 0.4863	0.5562
323.15 K, x1 = 0.5219	0.5504
323.15 K, x1 = 0.5611	0.5361
323.15 K, x1 = 0.6045	0.5122
323.15 K, x1 = 0.6527	0.4897
323.15 K, x1 = 0.7064	0.4529
323.15 K, x1 = 0.7667	0.4101
323.15 K, x1 = 0.8346	0.3351
323.15 K, x1 = 0.9118	0.2165

CCCCCCO [hexan-1-ol] + CC#N
Conditions	excess molar enthalpy [kcal/mol]
288.15 K, x1 = 0.0402	0.105
288.15 K, x1 = 0.0809	0.188
288.15 K, x1 = 0.1219	0.2555
288.15 K, x1 = 0.1629	0.3074
288.15 K, x1 = 0.2038	0.3499
288.15 K, x1 = 0.2445	0.386
288.15 K, x1 = 0.2846	0.4183
288.15 K, x1 = 0.3241	0.4434
288.15 K, x1 = 0.3628	0.4663
288.15 K, x1 = 0.4145	0.4969
288.15 K, x1 = 0.4465	0.5029
288.15 K, x1 = 0.4819	0.5
288.15 K, x1 = 0.5214	0.4912
288.15 K, x1 = 0.5657	0.4775
288.15 K, x1 = 0.6156	0.4565
288.15 K, x1 = 0.6722	0.425
288.15 K, x1 = 0.7368	0.3812
288.15 K, x1 = 0.8114	0.3083
288.15 K, x1 = 0.898	0.191
298.15 K, x1 = 0.0405	0.121
298.15 K, x1 = 0.0815	0.2278
298.15 K, x1 = 0.1226	0.3093
298.15 K, x1 = 0.1639	0.3812
298.15 K, x1 = 0.205	0.4328
298.15 K, x1 = 0.2457	0.4742
298.15 K, x1 = 0.286	0.5062
298.15 K, x1 = 0.3257	0.5239
298.15 K, x1 = 0.3849	0.5428
298.15 K, x1 = 0.4227	0.554
298.15 K, x1 = 0.4554	0.5566
298.15 K, x1 = 0.4916	0.5557
298.15 K, x1 = 0.5321	0.5492
298.15 K, x1 = 0.5774	0.5359
298.15 K, x1 = 0.6286	0.5057
298.15 K, x1 = 0.6866	0.4701
298.15 K, x1 = 0.753	0.4089
298.15 K, x1 = 0.8295	0.309
298.15 K, x1 = 0.9187	0.165
298.15 K, x1 = 0.958	0.0932
313.15 K, x1 = 0.0408	0.132
313.15 K, x1 = 0.0819	0.238
313.15 K, x1 = 0.1233	0.3184
313.15 K, x1 = 0.1648	0.3815
313.15 K, x1 = 0.206	0.4398
313.15 K, x1 = 0.247	0.4861
313.15 K, x1 = 0.2874	0.5151
313.15 K, x1 = 0.3271	0.5387
313.15 K, x1 = 0.3888	0.5705
313.15 K, x1 = 0.4178	0.5782
313.15 K, x1 = 0.4498	0.5834
313.15 K, x1 = 0.4853	0.5841
313.15 K, x1 = 0.5248	0.5772
313.15 K, x1 = 0.569	0.5595
313.15 K, x1 = 0.6188	0.5311
313.15 K, x1 = 0.6752	0.4883
313.15 K, x1 = 0.7395	0.435
313.15 K, x1 = 0.8134	0.3535
313.15 K, x1 = 0.8993	0.2239
323.15 K, x1 = 0.041	0.136
323.15 K, x1 = 0.0823	0.2452
323.15 K, x1 = 0.1239	0.3296
323.15 K, x1 = 0.1655	0.4001
323.15 K, x1 = 0.2069	0.4541
323.15 K, x1 = 0.2479	0.505
323.15 K, x1 = 0.2884	0.5461
323.15 K, x1 = 0.3282	0.575
323.15 K, x1 = 0.39	0.626
323.15 K, x1 = 0.419	0.6384
323.15 K, x1 = 0.451	0.6417
323.15 K, x1 = 0.4865	0.6353
323.15 K, x1 = 0.526	0.6231
323.15 K, x1 = 0.5702	0.6001
323.15 K, x1 = 0.6199	0.5698
323.15 K, x1 = 0.6762	0.5206
323.15 K, x1 = 0.7404	0.4529
323.15 K, x1 = 0.8142	0.3561
323.15 K, x1 = 0.8997	0.223

— the NIST ThermoML archive (doi:10.1016/j.tca.2006.08.007)
